Where only a bound is given, the exact number is not on record here.

Series [1] relates to E. coli. Put plainly: influence of anions on lytic activity of P9 proteins. It is filed as cell-based, Escherichia coli. The settings on record: 0.045 M MES-buffer, pH 6.3. Here is the method:
The lytic activity of the P9 proteins against E. coli at each stage of the process can be determined turbidimetrically and the total weight of protein measured. For this purpose, one unit of lytic activity is defined as the amount of factor giving 50% reduction of the absorbance of […] (50% lysis) compared to a control. […] A small volume, usually 10 μl, of the sample to be tested is added to 1 ml of bacterial suspension in an ice bath. In the control samples, an equal amount of buffer is substituted. The mixture is incubated (30 minutes at 37° C.) and transferred back to the ice bath during which most of the clearing of the E. coli suspension occurs. Results of such a determination, usually measured within 1 h, are tabulated below in Table 1.
The effects of sulfate or phosphate ions are hardly significant. The presence of acetate and formate buffers during the chromatography sequences until their removal by freeze-drying should be taken into account in interpreting the recovery data for protein P9 B in Table 1.

Series [2] relates to Pseudomonas aeruginosa, OT97. As to the kind of experiment: anti-bacterial specificity, killing time. It is filed as cell-based. The following applies: time required for killing 90% of the bacteria; 4 x 10^6 cells/ml. An excerpt:
(§1) The lysis of E. coli is believed to be due to at least two very similar small and basic proteins designated P9A and P9B. The P9 proteins are active against gram negative bacteria such as E. coli K12 strain D21f2, E. coli K12 strain D21, E. coli K12 strain D31, Enterobacter cloacae, β11, Pseudomonas aeruginosa, OT97, and Serratia marcescens, Db1108 but not S. marcescens Db11. The E. coli K12, strain D31 is a penicillin and streptomycin resistant mutant with a defective lipopolysaccharide. S. marcescens Db11 is a streptomycin resistant mutant derived from a parental strain, pathologic for Drosophila. S. marcescens Db1108 is a spontaneous phage resistant mutant of Db11. The bacterial strains are discussed in Boman, H. G., Nilsson-Faye, I., Paul, K. & Rasmuson, T. (1974) Infect. Immun. 10, 136-145; Monner, D. A., Jonsson, S. & Boman, H. G. (1971) J. Bacteriol. 107, 420-432; and Boman, H. G. & Monner, D. A. (1975) J. Bacteriol. 121, 455-464.
(§2) The anti-bacterial specificity of P9 proteins was determined for gram negative bacteria. Killing time shown in Table 4 is the time required for killing 90% of the bacteria. […] It is also clear that the heptose-less mutant E. coli D21f2 and S. marcescens Db1108 both were more sensitive to P9 proteins than their respective parental strains, D21 and Db11.

Series [3] concerns Enterobacter cloacae, β11. As to the kind of experiment: anti-bacterial specificity, killing time. In kind it is cell-based. The settings on record: time required for killing 90% of the bacteria; 3 x 10^6 cells/ml.
Description: as §1, §2

Series [4] has as its system Escherichia coli K12, D21f2. As to the kind of experiment: anti-bacterial specificity, killing time. In kind it is cell-based. The following applies: time required for killing 90% of the bacteria; 3 x 10^6 cells/ml.
Description: as §1, §2

For series [5], the system named is Serratia marcescens, Db1108. As to the kind of experiment: anti-bacterial specificity, killing time. The settings on record: time required for killing 90% of the bacteria; 3 x 10^6 cells/ml. In kind it is cell-based.
Description: as §1, §2

Series [6] concerns Serratia marcescens, Db11. As to the kind of experiment: anti-bacterial specificity, killing time. In kind it is cell-based. The following applies: time required for killing 90% of the bacteria; 3 x 10^6 cells/ml.
Description: as §1, §2

Series [7] has as its system Escherichia coli K12, D21. As to the kind of experiment: anti-bacterial specificity, killing time. It is filed as cell-based. The settings on record: time required for killing 90% of the bacteria; 4 x 10^6 cells/ml.
Description: as §1, §2

Series [8] relates to E. coli, strain D31. As to the kind of experiment: turbidimetric lytic activity against E. coli. It is filed as cell-based, Escherichia coli. The following applies: for Specific Lytic Activity: 1 unit = 50% lysis; for specific lytic activity against E. coli compared with immune hemolymph: versus starting material. An excerpt: The lytic activity of the P9 proteins against E. coli at each stage of the process can be determined turbidimetrically and the total weight of protein measured. For this purpose, one unit of lytic activity is defined as the amount of factor giving 50% reduction of the absorbance of […] (50% lysis) compared to a control. Log phase E. coli, strain D31 can be centrifuged and suspended in ice-cold 0.1 M phosphate buffer, pH 6.4, to give a density of 30 units on a Klett-Summerson colorimeter (A570 0.3-0.5). A small volume, usually 10 μl, of the sample to be tested is added to 1 ml of bacterial suspension in an ice bath. In the control samples, an equal amount of buffer is substituted. The mixture is incubated (30 minutes at 37° C.) and transferred back to the ice bath during which most of the clearing of the E. coli suspension occurs. Results of such a determination, usually measured within 1 h, are tabulated below in Table 1.

Series [9] deals with E. coli. As to the kind of experiment: heat stability in boiling water bath, remaining lytic activity. It is filed as physicochemical, Escherichia coli. An excerpt: FIG. 3 is a graph depicting the effect of heat on the lytic activity of lysozyme and P9 proteins. The filled symbols in the figure indicate a pH of 6.4; the open symbols indicate a pH of 3.2. Activity against E. coli is denoted in the figure by triangles; activity against M. Luteus is denoted by squares.
The activity against E. coli (triangles) is compared in FIG. 3 to the activity against M. luteus (squares). The former activity is associated with the P9 proteins and the latter with the lysozyme.

Series [10] relates to E. coli D31. As to the kind of experiment: simultaneous decrease of absorbance at 570 nm and viable count. It is filed as cell-based, Escherichia coli. The following applies: eight units per ml, 1 min. Here is the method:
For E. coli D31 the effect of P9 proteins can be observed by simultaneously following the decrease in the absorbance at 570 nm and the viable count of E. coli. Eight units of protein P9 B per ml in 1 min gave a reduction of viable count from 10^8 to <10^5 while the absorbance dropped 14%.

The mark [11] stands for this setting: added salt: Ammonium formate, ionic strength 0.15 M.
Where [12] appears, read: added salt: None, ionic strength 0.15 M with sodium chloride.
The mark [13] stands for this setting: added salt: Sodium acetate, ionic strength 0.15 M.
The mark [14] stands for this setting: added salt: Sodium phosphate, ionic strength 0.15 M.
Where [15] appears, read: added salt: Sodium sulfate, ionic strength 0.15 M.
The mark [16] stands for this setting: fraction after Step 1 of chromatography.

For the substance “N-LYS-TRP-LYS-LEU-PHE-LYS-LYS-ILE-GLU-LYS-VAL-GLY-GLN-ASN-ILE-ARG-ASP-GLY- ILE-ILE-LYS-ALA-GLY-PRO-ALA-VAL-ALA-VAL-VAL-GLY-GLN-ALA-THR-C (KWKLFKKIEKVGQNIRDGIIKAGPAVAVVGQAT; printed: LYS-TRP-LYS-LEU-PHE-LYS-LYS-ILE-GLU-LYS-VAL-GLY-GLN-ASN-ILE-ARG-ASP-GLY- ILE-ILE-LYS-ALA-GLY-PRO-ALA-VAL-ALA-VAL-VAL-GLY-GLN-ALA-THR-) [P9 A]”, the “Relative Activity” value was determined as 1.3 in series [1] (setting [11]); 1.0 in series [1] (setting [12]); 0.9 in [1] (setting [13]); 0.8 in [1] (setting [14]); 0.6 in [1] (setting [15]). Besides, the “Killing Time” value in [2] was 10 min; in series [3], 12 min; in [4], under 0.25 min; in series [5], 48 min; in series [6] it was over 120 min; in series [7], 0.60 min. Also, the “Specific Lytic Activity” value in [8] (after Step 2 and freeze-drying) was 5.6 Units/μg of protein; in [8] (setting [16]) it was 4.4 Units/μg of protein. Besides, in series [8], the “specific lytic activity against E. coli compared with immune hemolymph” value is listed as “substantially greater”. In addition, in series [9], the “heat stability in words” value was “heat stable”.
As to “N-LYS-TRP-LYS-VAL-(MET)-ILE-(PHE)-LYS-LYS-ILE-(PHE)-GLU-LYS- -GLY-ARG-ASN-ILE-(PHE)-ARG-ASN-(LYS)-GLY- [P9 B]”, the increase in activity result in series [1] (acetate or formate ions, ionic strength 0.15 M with sodium chloride) is “four-fold increase”. Besides, the “Relative Activity” value was 4.5 in [1] (setting [11]); 1.0 in [1] (setting [12]); 4.1 in series [1] (setting [13]); 1.3 in series [1] (setting [14]); 1.2 in [1] (setting [15]). Moreover, the “Killing Time” value in series [2] is given as 5 min; in series [3] it was 15 min; in series [4] it was under 0.25 min; in [5] it was 115 min; in series [6] it was over 120 min; in [7] it was 1 min. For the same substance, the “drop of absorbance at 570 nm” value in series [10] was determined as 14%. Further, in series [10] (reduction from 10^8), the “viable count after treatment” value was < 10^5. In addition, the “Specific Lytic Activity” value in [8] (after Step 2 and freeze-drying) is listed as 1.9 Units/μg of protein; in series [8] (setting [16]) it was 5.3 Units/μg of protein. The “specific lytic activity against E. coli compared with immune hemolymph” value in [8] was “substantially greater”. Also, the “heat stability in words” value in series [9] was “heat stable”.

The values are drawn from patent publication US4355104A, “Bacteriolytic proteins” (priority 1980, dated 1982).
